Measurements: patent US8158646B2, “Antifungal and antiparasitic indoloquinoline derivates” (Florida Agricultural and Mechanical University, priority 2006, dated 2012)
Marks after values point to notes of the source that are not given here.

Columns and labels:
Vero cells = experiment: Cytotoxicity to mammalian cells (Vero); type: cell-based; settings: African green monkey
Experimental: (§1) All organisms were obtained from the American Type Culture Collection (Manassas, Va.). Susceptibility testing was performed using a modified version of the NCCLS methods [a) National Committee for Clinical Laboratory Standards. 2000. Methods for dilution antimicrobial susceptibility tests for bacteria that grow aerobically. M7-A5. […] Approved standard M27-A. National Committee for Clinical Laboratory Standards, Wayne, Pa. c) National Committee for Clinical Laboratory Standards. 2000. Susceptibility testing of mycobacteria, nocardia, and other aerobic actinomycetes, 2nd ed. Tentative standard M24- T2. […] Briefly, samples (dissolved in DMSO) were serially diluted by using 0.9% saline and transferred in duplicate to 96-well microplates. Microbial inocula were prepared after comparison of the absorbance (at 630 nm) of cell suspensions to the 0.5 McFarland standard and dilution of the suspensions in broth (Sabouraud dextrose and cation-adjusted Mueller-Hinton broth [Difco] for the fungi and bacteria, respectively, and 5% Alamar blue [BioSource international] in Middlebrook 7H9 broth with oleic acid-albumin-dextrose-catalase enrichment for M intracellulare) to afford recommended inoculum sizes. Microbial inocula were added to the samples to achieve a final volume of 200 μl and final sample concentrations starting with 100 μg/ml. Growth, solvent, and medium controls were included on each test plate. […] Antimalarial and cytotoxicity testing were conducted in a similar manner as previously reported [a) Muhammad, 1.; Bedir, E.; Khan, S. I.; Tekwani, B. L.; Khan, I. A.; Takamatsu, S.; Pelletier, 1.; Walker, L. A. J Nat Prod.

[1] = tested on: methicillin-resistant S. aureus ATCC 43300; experiment: Antimicrobial susceptibility testing, MRSA; type: cell-based, Staphylococcus aureus; settings: Methicillin-Resistant Staphylococcus aureus; read-out: IC50 MRSA
Experimental: (§2) Compounds were evaluated in vitro against a panel of microorganisms, including Candida albicans ATCC 90028 (Ca), C. krusei ATCC 6258 (Ck), Cryptococcus neoformans ATCC 90113 (Cn), Staphylococcus aureus ATCC 29213 (Sa), methicillin-resistant S. aureus ATCC 43300 (MRSA), Pseudomonas aeruginosa ATCC 27853 (Pa), Aspergilllus fumigatus ATCC 90906 (Aj), and Mycobacterium intracellulare ATCC 23068 (Mi) as previously reported [Guoyi, M.; Khan, S.; Jacob, M. R; Tekwani, B. L.; Li, Z.; Pasco, D. S.; Walker, L. A.; Khan, 1. A.; Antimicrob Agents Chemother, 2004, 48, 4450-4452]. All organisms were obtained from the American Type Culture Collection (Manassas, Va.). Susceptibility testing was performed using a modified version of the NCCLS methods [a) National Committee for Clinical Laboratory Standards. 2000. Methods for dilution antimicrobial susceptibility tests for bacteria that grow aerobically. M7-A5. National Committee for Clinical Laboratory Standards, Wayne, Pa. b) National Committee for Clinical Laboratory Standards, 1997, Reference method for broth dilution antifungal susceptibility testing of yeasts. Approved standard M27-A. National Committee for Clinical Laboratory Standards, Wayne, Pa. c) National Committee for Clinical Laboratory Standards. 2000. Susceptibility testing of mycobacteria, nocardia, and other aerobic actinomycetes, 2nd ed. Tentative standard M24- T2. National Committee for Clinical Laboratory Standards, Wayne, Pa.] for all organisms except for M intracellulare, for which the modified Alamar blue procedure described by Franzblau et al [1998. J Clin Microbiol, 36, 362-366] was followed. Briefly, samples (dissolved in DMSO) were serially diluted by using 0.9% saline and transferred in duplicate to 96-well microplates. Microbial inocula were prepared after comparison of the absorbance (at 630 nm) of cell suspensions to the 0.5 McFarland standard and dilution of the suspensions in broth (Sabouraud dextrose and cation-adjusted Mueller-Hinton broth [Difco] for the fungi and bacteria, respectively, and 5% Alamar blue [BioSource international] in Middlebrook 7H9 broth with oleic acid-albumin-dextrose-catalase enrichment for M intracellulare) to afford recommended inoculum sizes. Microbial inocula were added to the samples to achieve a final volume of 200 μl and final sample concentrations starting with 100 μg/ml. Growth, solvent, and medium controls were included on each test plate. The plates were read at either 630 nm or excitation and emission wavelengths of 544 and 590 nm (for Mi) prior to and after incubation. Percent growth was calculated and plotted with the concentration tested to afford the concentration that inhibits 50% of growth (IC50). […]

[2] = tested on: Mycobacterium intracellulare ATCC 23068; experiment: Modified Alamar blue procedure, Mi; type: cell-based; settings: ATCC23068, read-out: IC50 Mi
Experimental: as §2

[3] = tested on: Pseudomonas aeruginosa ATCC 27853; experiment: Antimicrobial susceptibility testing, Pa; type: cell-based; settings: ATCC27853, NA = Not active up to 20 μg/ml
Experimental: (§3) Compounds were evaluated in vitro against a panel of microorganisms, including Candida albicans ATCC 90028 (Ca), C. krusei ATCC 6258 (Ck), Cryptococcus neoformans ATCC 90113 (Cn), Staphylococcus aureus ATCC 29213 (Sa), methicillin-resistant S. aureus ATCC 43300 (MRSA), Pseudomonas aeruginosa ATCC 27853 (Pa), Aspergilllus fumigatus ATCC 90906 (Aj), and Mycobacterium intracellulare ATCC 23068 (Mi) as previously reported [Guoyi, M.; Khan, S.; Jacob, M. R; Tekwani, B. L.; Li, Z.; Pasco, D. S.; Walker, L. A.; Khan, 1. A.; Antimicrob Agents Chemother, 2004, 48, 4450-4452]. All organisms were obtained from the American Type Culture Collection (Manassas, Va.). Susceptibility testing was performed using a modified version of the NCCLS methods [a) National Committee for Clinical Laboratory Standards. 2000. […] Microbial inocula were prepared after comparison of the absorbance (at 630 nm) of cell suspensions to the 0.5 McFarland standard and dilution of the suspensions in broth (Sabouraud dextrose and cation-adjusted Mueller-Hinton broth [Difco] for the fungi and bacteria, respectively, and 5% Alamar blue [BioSource international] in Middlebrook 7H9 broth with oleic acid-albumin-dextrose-catalase enrichment for M intracellulare) to afford recommended inoculum sizes. […] The plates were read at either 630 nm or excitation and emission wavelengths of 544 and 590 nm (for Mi) prior to and after incubation. […]

[4] = tested on: Aspergillus fumigatus ATCC 90906; experiment: Antimicrobial susceptibility testing, Af; type: cell-based; settings: ATCC90906, read-out: IC50 Af
Experimental: as §2

[5] = tested on: Cryptococcus neoformans ATCC 90113; experiment: Antifungal susceptibility testing (modified NCCLS), Cn; type: cell-based; settings: for IC50: ATCC90113, NA not defined in Table 1, read-out: IC50 Cn
Experimental: (§4) Compounds were evaluated in vitro against a panel of microorganisms, including Candida albicans ATCC 90028 (Ca), C. krusei ATCC 6258 (Ck), Cryptococcus neoformans ATCC 90113 (Cn), Staphylococcus aureus ATCC 29213 (Sa), methicillin-resistant S. aureus ATCC 43300 (MRSA), Pseudomonas aeruginosa ATCC 27853 (Pa), Aspergilllus fumigatus ATCC 90906 (Aj), and Mycobacterium intracellulare ATCC 23068 (Mi) as previously reported [Guoyi, M.; Khan, S.; Jacob, M. R; Tekwani, B. L.; Li, Z.; Pasco, D. S.; Walker, L. A.; Khan, 1. A.; Antimicrob Agents Chemother, 2004, 48, 4450-4452]. All organisms were obtained from the American Type Culture Collection (Manassas, Va.). Susceptibility testing was performed using a modified version of the NCCLS methods [a) National Committee for Clinical Laboratory Standards. 2000. Methods for dilution antimicrobial susceptibility tests for bacteria that grow aerobically. M7-A5. National Committee for Clinical Laboratory Standards, Wayne, Pa. b) National Committee for Clinical Laboratory Standards, 1997, Reference method for broth dilution antifungal susceptibility testing of yeasts. Approved standard M27-A. National Committee for Clinical Laboratory Standards, Wayne, Pa. c) National Committee for Clinical Laboratory Standards. 2000. Susceptibility testing of mycobacteria, nocardia, and other aerobic actinomycetes, 2nd ed. Tentative standard M24- T2. National Committee for Clinical Laboratory Standards, Wayne, Pa.] for all organisms except for M intracellulare, for which the modified Alamar blue procedure described by Franzblau et al [1998. J Clin Microbiol, 36, 362-366] was followed. Briefly, samples (dissolved in DMSO) were serially diluted by using 0.9% saline and transferred in duplicate to 96-well microplates. Microbial inocula were prepared after comparison of the absorbance (at 630 nm) of cell suspensions to the 0.5 McFarland standard and dilution of the suspensions in broth (Sabouraud dextrose and cation-adjusted Mueller-Hinton broth [Difco] for the fungi and bacteria, respectively, and 5% Alamar blue [BioSource international] in Middlebrook 7H9 broth with oleic acid-albumin-dextrose-catalase enrichment for M intracellulare) to afford recommended inoculum sizes. Microbial inocula were added to the samples to achieve a final volume of 200 μl and final sample concentrations starting with 100 μg/ml. Growth, solvent, and medium controls were included on each test plate. The plates were read at either 630 nm or excitation and emission wavelengths of 544 and 590 nm (for Mi) prior to and after incubation. Percent growth was calculated and plotted with the concentration tested to afford the concentration that inhibits 50% of growth (IC50). Antimalarial and cytotoxicity testing were conducted in a similar manner as previously reported [a) Muhammad, 1.; Bedir, E.; Khan, S. I.; Tekwani, B. L.; Khan, I. A.; Takamatsu, S.; Pelletier, 1.; Walker, L. A. J Nat Prod. 2004, 67, 772-7. b) Muhammad, 1.; Dunbar, D. C.; Khan, S. 1.; Tekwani, B. L.; Bedir, E.; Takamatsu, S.; Ferreira, D, Walker L A., J Nat Prod. 2003, 66, 962-7].

[6] = tested on: Staphylococcus aureus ATCC 29213; experiment: Antimicrobial susceptibility testing, Sa; type: cell-based; settings: ATCC29213
Experimental: as §3

[7] = tested on: Plasmodium falciparum W2 Clone; experiment: Antimalarial testing, W2 clone; type: cell-based; settings: W2 Clone; for IC50: Plasmodium falciparum, NA = Not active up to 20 μg/ml, read-out: Plasmodium falciparum IC50 Pf (W2); for SI (W2): SI = IC50 (vero cells)/IC50 (Pf)
Experimental: as §4

[8] = tested on: Plasmodium falciparum D6 Clone; experiment: Antimalarial testing, D6 clone; type: cell-based; settings: D6 Clone; for IC50: Plasmodium falciparum, read-out: Plasmodium falciparum IC50 Pf (D6); for SI (D6): SI = IC50 (vero cells)/IC50 (Pf)
Experimental: as §1

[9] = tested on: Candida albicans ATCC 90028; experiment: Antifungal susceptibility testing (modified NCCLS), Ca; type: cell-based; settings: for IC50: ATCC90028, NA not defined in Table 1, read-out: IC50 Ca
Experimental: as §4

C. krusei ATCC 6258 = experiment: Antimicrobial susceptibility testing, Ck; type: cell-based, Candida krusei; settings: Pichia kudriavzevii, ATCC6258; Candida krusei; read-out: IC50 Ck
Experimental: as §3, with “2000. Methods for dilution antimicrobial susceptibility tests for bacteria that grow aerobically. M7-A5. National Committee for Clinical Laboratory Standards, Wayne, Pa. b) National Committee for Clinical Laboratory Standards, 1997, Reference method for broth dilution antifungal susceptibility testing of yeasts. Approved standard M27-A. National Committee for Clinical Laboratory Standards, Wayne, Pa. c) National Committee for Clinical Laboratory Standards. 2000. Susceptibility testing of mycobacteria, nocardia, and other aerobic actinomycetes, 2nd ed. Tentative standard M24- T2.” for “2000.”

Compound	Cytotoxicity (Vero) TC50 (Vero cells) [µg/mL]	no cytotoxicity up to (concentration) (Vero cells) [µg/mL]	IC50 [1] [µg/mL]	IC50 [2] [µg/mL]	IC50 [3] [µg/mL]	IC50 [4] [µg/mL]	IC50 [5] [µg/mL]	IC50 [6] [µg/mL]	IC50 [7] [µg/mL]	SI (W2) [7]	IC50 [8] [µg/mL]	SI (D6) [8]	IC50 [9] [µg/mL]	IC50 (C. krusei ATCC 6258) [µg/mL]	IC50 Cn ([5]; NA not defined in Table 1)	IC50 Ca ([9]; NA not defined in Table 1) [µg/mL]
c1ccc2c(c1)cc1[nH]c3ccccc3c1[n+]2CCCCC[n+]1c2ccccc2cc2[nH]c3ccccc3c21 [Compound 10]	>23.8	> 23.8	3	7	1.5	20	1.5	3	1	>23.8	1.3	>18.3	> 50			
C[n+]1c2ccccc2cc2c1c1ccccc1n2CCCCCn1c2ccccc2c2c1cc1ccccc1[n+]2C [Compound 12]	>23.8	> 23.8	6	15		20	2		0.14	>170	0.26	>91.5	2	15		
cryptolepine [Compound 2b, reference compound]															15.6^d μg/ml	0.8 to 180
